Patent US20240293566A1, “ANTI-EGFRvIII ANTIBODY DRUG CONJUGATES AND USES THEREOF” (Regeneron Pharmaceuticals, Inc., priority 2021, published 2024)

Key:
U251 MG/hEGFRvIII cells = assay: In vitro cytotoxicity (nuclear counts after 6-day treatment), mono-culture; type: cell-based, human
Source text: (§1) To determine the relative cell-killing potency of anti-EGFRvIII antibody drug conjugates of the invention, cell-killing assays were run on a cell line expressing human EGFRvIII. To develop the cell line, Lipofectamine LTX with Plus Reagent was used to generate U251 cells (Sigma, #9063001) expressing human EGFRvIII (hEGFRvIII; amino acids 1 through 380 of accession number NP_005219.2 with a deletion of amino acids 30 through 297 and creation of a junctional glycine residue, i.e. SEQ ID NO: 25) here in referred to as U251 MG/hEGFRvIII. The U251 lines were maintained in complete growth media (MEM Earle's Salts+10% FBS+1% L-glutamine/penicillin/streptomycin+1% non-essential amino acids+sodium pyruvate).
(§2) To measure the in vitro cytotoxicity of anti-EGFRvIII antibody drug conjugates, nuclear counts after a 6-day treatment with the antibody drug conjugates were assessed. […] Nuclear counts were determined via Harmony image analysis software (PerkinELmer), and cell viability was expressed as a percentage of the untreated (100% viable) cells. IC50 values were determined using a four-parameter logistic equation over a 10-point dose response curve (GraphPad Prism). The maximum % kill was also determined for each test article as follows: 100-minimum percent viability.

[1] = test system: U251MG/hEGFRvIII in coculture; assay: Bystander killing assay, 1:1 coculture, far red positive population; type: cell-based, human; details: 6 days
Experimental: Bystander killing by an ADC can take place when the cytotoxic payload is released from the target cells and is then taken up by surrounding antigen-negative (bystander) cells. […] Cells were subsequently treated with 3 ug/mL of Hoechst 33342 nuclear stain (ThermoFisher, #H3570) while being fixed with 4% formaldehyde (ThermoFisher, #28908). Images were acquired on the Opera Phenix Microscope (PerkinELmer). All cells were identified by the Hoechst-labeled nuclei and cell counts were separated into far red positive U251 MG/hEGFRvIII cells (U251 in coculture) and far red negative parental U251 MG cell populations via Harmony image analysis software (PerkinELmer). Cell viability was determined separately for each cell population and expressed as a percentage of the untreated (100% viable) cells.

U251MG in coculture = assay: Bystander killing assay, 1:1 coculture, far red negative population; type: cell-based; details: 6 days
Experimental: Bystander killing by an ADC can take place when the cytotoxic payload is released from the target cells and is then taken up by surrounding antigen-negative (bystander) cells. […] A 1:1 coculture of 1500 cells/well of far red labeled U251 MG/hEGFRvIII cells and 1500 cells/well unlabeled U251 MG cells were incubated with either ADC or free payload M31 at a range of concentrations (100 nM to 1.5 pM) for 6 days. Cells were subsequently treated with 3 ug/mL of Hoechst 33342 nuclear stain (ThermoFisher, #H3570) while being fixed with 4% formaldehyde (ThermoFisher, #28908). Images were acquired on the Opera Phenix Microscope (PerkinELmer). All cells were identified by the Hoechst-labeled nuclei and cell counts were separated into far red positive U251 MG/hEGFRvIII cells (U251 in coculture) and far red negative parental U251 MG cell populations via Harmony image analysis software (PerkinELmer). Cell viability was determined separately for each cell population and expressed as a percentage of the untreated (100% viable) cells.

U251 MG parental cells = assay: In vitro cytotoxicity (nuclear counts after 6-day treatment), mono-culture; type: cell-based
Source text: as §1, §2

[2] = test system: Orthotopically placed GBM59 GBM PDX tumors; assay: Intracranial orthotopic GBM59 PDX survival, comparison with COMP-MMAF (Example 11); type: in vivo, mice
Experimental: Intracranial injection was performed at 1 mm anterior and 2 mm lateral to the bregma at a depth of 3 mm. All orthotopic GBM PDX studies were conducted by Translational Drug Development Inc. Orthotopic GBM59 PDX were allowed to establish for 25 days before mice were randomized into groups of 8 and treated with a single dose of test or control ADCs. Mice were monitored for 94 days for signs of peri-morbidity and euthanized prior to reaching a moribund state.

U251/EGFRvIII xenografts = assay: Subcutaneous U251/EGFRvIII xenograft, comparison with COMP-MMAF (Example 11); type: in vivo, SCID mice; details: for Tumor growth (mm^3) from start of treatment (mean ± SD) / Tumor volume (mm^3) at termination of vehicle group (mean ± SD): Day 36 post-treatment
Experimental: For the initial xenograft study, U251/EGFRvIII tumors were established by the subcutaneous implantation of 10×10^6 cells mixed 1:1 with Matrigel on the right flank of male SCID mice. Tumors were grown to ˜175 mm^3 before treatment initiation, approximately 30 days post-implantation. Mice were randomized into groups of 8 and treated with a single dose of test or control ADCs. Tumor growth was monitored for 71 days post-treatment.

Molecule: COc1cc2c(cc1OCCCCCOc1cc3c(cc1OC)C(=O)N1C=C(C)C[C@H]1C=N3)N=C[C@@H]1CC(C)=CN1C2=O [SG3199]
- IC50 (U251 MG/hEGFRvIII cells; Homo sapiens, U-251, 144 h): 0.01 nM
- % Kill (maximum) (U251 MG/hEGFRvIII cells; U251MG/hEGFRvIII mono-culture, 6 days): 92%
- % Kill (maximum) [1]: 91%
- IC50 ([1]; Homo sapiens, U-251, 144 h): 0.01 nM
- % Kill (maximum) (U251MG in coculture): 94%
- IC50 (U251MG in coculture; Homo sapiens, U-251, 144 h): 7 pM
- IC50 (U251 MG parental cells; Homo sapiens, U-251, 144 h): 2 pM
- % Kill (maximum) (U251 MG parental cells; U251MG mono-culture, 6 days): 93%

Molecule: COMP-MMAF: ABT-414 (hu806) antibody conjugated to monomethyl auristatin F (MMAF) via non-cleavable linker
- N = 8 survival at Day 94 ([2]; ADC dose 1 (mg/kg)): 0/8
- median survival ([2]; ADC dose 1 (mg/kg)): 13.5 days
- N = 8 survival at Day 94 ([2]; ADC dose 5 (mg/kg), MMAF ADCs): 0/8
- median survival ([2]; ADC dose 5 (mg/kg), MMAF ADCs): 23.5 days
- Effect on survival relative to the MMAF control ([2]; COMP-MMAF 5 mg/kg): some increase in survival
- Time within which all mice succumbed to tumor burden ([2]; COMP-MMAF 5 mg/kg): ≤ 35 days of treatment
- Effect on survival ([2]; REGN3124-tesirine DAR 1.9, 7 ug/kg payload, COMP-MMAF 1 mg/kg, controls): did not induce a significant increase in survival
- Anti-tumor activity (U251/EGFRvIII xenografts; COMP-MMAF 2.5 mg/kg): Activity against tumors was seen
- Anti-tumor activity (U251/EGFRvIII xenografts; COMP-MMAF 5 mg/kg, 71 days post-dosing): sustained activity similar to that resulting from treatment with REGN3124-tesirine
- Tumor growth (mm^3) from start of treatment (mean ± SD) (U251/EGFRvIII xenografts; ADC dose 1 mg/kg): 423 ± 324 mm^3
- Tumor volume (mm^3) at termination of vehicle group (mean ± SD) (U251/EGFRvIII xenografts; ADC dose 1 mg/kg): 595 ± 325 mm^3
- Tumor growth (mm^3) from start of treatment (mean ± SD) (U251/EGFRvIII xenografts; ADC dose 2.5 mg/kg): 6 ± 36 mm^3
- Tumor volume (mm^3) at termination of vehicle group (mean ± SD) (U251/EGFRvIII xenografts; ADC dose 2.5 mg/kg): 183 ± 51 mm^3
- Tumor growth (mm^3) from start of treatment (mean ± SD) (U251/EGFRvIII xenografts; ADC dose 5 mg/kg): −36 ± 22 mm^3
- Tumor volume (mm^3) at termination of vehicle group (mean ± SD) (U251/EGFRvIII xenografts; ADC dose 5 mg/kg): 136 ± 16 mm^3
- Anti-tumor activity (U251/EGFRvIII xenografts; REGN3124-tesirine 0.53 mg/kg ADC (7 ug/kg PBD payload), COMP-MMAF 1 mg/kg, isotype controls all dose levels): Sustained regression was not observed
